Reference: patent publication US8765389B2, “Genetic products which are differentially expressed in tumors and use thereof” (Ganymed Pharmaceuticals AG, priority 2003, dated 2014)
d = 2'-deoxy (DNA); r = 2'-OH (RNA)

Key:
Format in all cases: cell-based, human
[1] = tested on: TPTE expression; assay: Methylation studies: induceability of TPTE expression by genomic demethylation, real-time RT-PCR; conditions: 72 h, 2 μM or 10 μM
Experimental: Real-time RT-PCR analysis of the TPTE expression in the non-expressing cell lines BT549 and HCT116 following treatment of the cells with 2 μM and 10 μM 5-aza-2′-desoxycytidine, respectively, and in HCT116 cells which are deficient for DNA methyltransferase.
For investigating the induceability of TPTE expression by genomic demethylation, TPTE negative cell lines BT549 (Mamma-Ca) and HCT116 (Colon-Ca) were cultivated for 72 h with 2 μM or 10 μM 5-aza-2′-desoxycytidine. Then, the TPTE expression was quantified by means of real-time RT-PCR. Furthermore, TPTE expression was quantified in DNA methyl transferase (DNMT) deficient HCT116 cells. While DNMT1 (HCT116^DNMT1−/−) or DNMT3b (HCT116^ENMT3b−/−) deficient cells show an almost unchanged methylation pattern when compared to the parental cell line (HCT116^Par), cells in which both DNMTs have been simultaneously deleted (HCT116^DKO) are characterized by an almost complete demethylation of genomic DNA.
A quantitative real-time PCR (40 cycles, initial denaturation 15 min 95° C., 30 sec 94° C., 30 sec 62° C. and 30 sec 72° C.) was performed using specific primers (sense […] (SEQ ID NO: 823); antisense […] (SEQ ID NO: 28)) (FIG. 19). […] The ectopic expression of many known CT genes in tumors is induced by promoter demethylation. […]

[2] = tested on: PC-3 prostate carcinoma cells; assay: Boyden chamber (Transwell) migration assay of PC-3 cells after TPTE-siRNA electroporation
[3] = tested on: TPTE mRNA; assay: Knock-down of TPTE expression in PC-3 cells using RNAi, real-time RT-PCR; conditions: PC-3 cells electroporated with 1 μM siRNA, 24 hours later, quantitative real-time RT-PCR
Experimental: PC-3 cells were electroporated using 1 μM siRNA specific for TPTE. After 24 h mRNA expression was quantified by real-time RT-PCR. Non-electroporated cells and cells electroporated with DsRed siRNA served as controls.
Expression of TPTE, MS4A12, PCSC and BRCO1 was also quantified using real-time PCR, however, the PCR products were detected using SYBR-Green as reporter dye. The reporter fluorescence of SYBR-Green is suppressed in solution and the dye is only active following binding to double-stranded DNA fragments. The increase of SYBR-Green fluorescence due to the specific amplification by means of GOI-specific primers following each PCR cycle is used for quantification. Quantification of expression of the target gene is performed absolute or relative to the expression of a control gene with constant expression in the tissues to be studied. LDHC expression was calculated by means of the ΔΔ-CT method (PE Biosystems, USA), after normalizing the samples to 18s RNA as “house-keeping” gene. The reactions were carried out in duplex mixtures and determined in triplicate. The QuantiTect SYBR-Green PCR kit (Qiagen, Hilden) was used according to the manufacturer's instructions. cDNA was synthesized using the High Capacity cDNA Archive Kit (PE Biosystems, USA) and hexamer primers according to the manufacturer's information. […]

Molecule	induction of TPTE expression ([1]; BT549 (Mamma-Ca) cells)	induction of TPTE expression ([1]; HCT116 (Colon-Ca) cells)	cell migration in the Boyden chamber assay ([2]; 48 h after electroporation with 1 μM TPTE-siRNA)	reduction of the migration rate ([2]; Transwell migration assay, compared to untreated cells and cells electroporated with irrelevant siRNA) [%]	decrease in TPTE expression [3] [%]
Nc1ncn([C@H]2C[C@H](O)[C@@H](CO)O2)c(=O)n1 [5-aza-2′-desoxycytidine]	strong induction of TPTE expression	strong induction of TPTE expression	–	–	–
TPTE-siRNA: siRNA duplex (SEQ ID NO: 826/827) targeting nucleotides 2043-2061 of the TPTE mRNA sequence (NM_013315) (chain 1 CCCUGCCACAUGUUCAUAUTT; chain 2 AUAUGAACAUGUGGCAGGGTT; sugars from the 5' end r19 d2, backbone not given here)	–	–	Relevant decrease of cell migration	70	70
